Experimental data published in ChEMBL document CHEMBL4507311, “Data for DCP probe A-1155463” (2021).

Key:
Details in all cases: Compound concentration 1000.0 nM
[1] = target: Atypical kinase COQ8A, mitochondrial (Homo sapiens) (UniProt Q8NI60)
[2] = target: Ribosomal protein S6 kinase alpha-6 (Homo sapiens) (UniProt Q9UK32)
[3] = target: Macrophage colony-stimulating factor 1 receptor (Homo sapiens) (UniProt P07333)
[4] = target: Tyrosine-protein kinase Lyn (Homo sapiens) (UniProt P07948)
[5] = target: Serine/threonine-protein kinase/endoribonuclease IRE1 (Homo sapiens) (UniProt O75460)
[6] = target: Serine/threonine-protein kinase ICK (Homo sapiens) (UniProt Q9UPZ9)
[7] = target: Serine/threonine-protein kinase Nek1 (Homo sapiens) (UniProt Q96PY6)
[8] = target: Ephrin type-B receptor 6 (Homo sapiens) (UniProt O15197)
[9] = target: Ribosomal protein S6 kinase alpha-4 (Homo sapiens) (UniProt O75676)
[10] = target: Focal adhesion kinase 1 (Homo sapiens) (UniProt Q05397)
[11] = target: Serine/threonine-protein kinase 32A (Homo sapiens) (UniProt Q8WU08)
[12] = target: Serine/threonine-protein kinase 4 (Homo sapiens) (UniProt Q13043)
[13] = target: Serine/threonine-protein kinase Nek5 (Homo sapiens) (UniProt Q6P3R8)
[14] = target: Rho-associated protein kinase 1 (Homo sapiens) (UniProt Q13464)
[15] = target: Serine/threonine-protein kinase PLK3 (Homo sapiens) (UniProt Q9H4B4)
[16] = target: Serine/threonine-protein kinase mTOR (Homo sapiens) (UniProt P42345)
[17] = tested on: Phosphatidylinositol 4,5-bisphosphate 3-kinase catalytic subunit alpha isoform (Homo sapiens), P42336 [I800L]
[18] = target: Serine/threonine-protein kinase DCLK2 (Homo sapiens) (UniProt Q8N568)
[19] = target: Receptor-type tyrosine-protein kinase FLT3 (Homo sapiens) (UniProt P36888)
[20] = target: Macrophage-stimulating protein receptor (Homo sapiens) (UniProt Q04912)
[21] = target: Tyrosine-protein kinase Srms (Homo sapiens) (UniProt Q9H3Y6)
[22] = target: Mitogen-activated protein kinase kinase kinase 10 (Homo sapiens) (UniProt Q02779)
[23] = target: RAC-alpha serine/threonine-protein kinase (Homo sapiens) (UniProt P31749)
[24] = target: Tyrosine-protein kinase Mer (Homo sapiens) (UniProt Q12866)
[25] = target: Discoidin domain-containing receptor 2 (Homo sapiens) (UniProt Q16832)
[26] = target: Ephrin type-A receptor 6 (Homo sapiens) (UniProt Q9UF33)
[27] = tested on: Epidermal growth factor receptor (Homo sapiens), P00533 [UNDEFINED MUTATION]
[28] = target: Tyrosine-protein kinase ZAP-70 (Homo sapiens) (UniProt P43403)
[29] = target: Ephrin type-B receptor 1 (Homo sapiens) (UniProt P54762)
[30] = target: Phosphatidylinositol 3-kinase C2 domain-containing subunit gamma (Homo sapiens) (UniProt O75747)
[31] = target: Casein kinase I isoform gamma-2 (Homo sapiens) (UniProt P78368)
[32] = target: Serine/threonine-protein kinase Sgk3 (Homo sapiens) (UniProt Q96BR1)
[33] = target: Calcium/calmodulin-dependent protein kinase type 1D (Homo sapiens) (UniProt Q8IU85)
[34] = target: Platelet-derived growth factor receptor beta (Homo sapiens) (UniProt P09619)
[35] = target: Wee1-like protein kinase (Homo sapiens) (UniProt P30291)
[36] = target: Serine/threonine-protein kinase Chk2 (Homo sapiens) (UniProt O96017)
[37] = target: Fibroblast growth factor receptor 2 (Homo sapiens) (UniProt P21802)
[38] = target: Serine/threonine-protein kinase Nek10 (Homo sapiens) (UniProt Q6ZWH5)
[39] = target: Cyclin-dependent kinase-like 2 (Homo sapiens) (UniProt Q92772)
[40] = target: Serine/threonine-protein kinase DCLK1 (Homo sapiens) (UniProt O15075)
[41] = target: Leukocyte tyrosine kinase receptor (Homo sapiens) (UniProt P29376)
[42] = target: RAC-gamma serine/threonine-protein kinase (Homo sapiens) (UniProt Q9Y243)
[43] = target: MAP/microtubule affinity-regulating kinase 3 (Homo sapiens) (UniProt P27448)
[44] = target: Phosphatidylinositol 4,5-bisphosphate 3-kinase catalytic subunit gamma isoform (Homo sapiens) (UniProt P48736)
[45] = tested on: Hepatocyte growth factor receptor (Homo sapiens), P08581 [Y1235D]

Chain of Serine/threonine-protein kinase Nek5 (Homo sapiens) (Q6P3R8 whole entry): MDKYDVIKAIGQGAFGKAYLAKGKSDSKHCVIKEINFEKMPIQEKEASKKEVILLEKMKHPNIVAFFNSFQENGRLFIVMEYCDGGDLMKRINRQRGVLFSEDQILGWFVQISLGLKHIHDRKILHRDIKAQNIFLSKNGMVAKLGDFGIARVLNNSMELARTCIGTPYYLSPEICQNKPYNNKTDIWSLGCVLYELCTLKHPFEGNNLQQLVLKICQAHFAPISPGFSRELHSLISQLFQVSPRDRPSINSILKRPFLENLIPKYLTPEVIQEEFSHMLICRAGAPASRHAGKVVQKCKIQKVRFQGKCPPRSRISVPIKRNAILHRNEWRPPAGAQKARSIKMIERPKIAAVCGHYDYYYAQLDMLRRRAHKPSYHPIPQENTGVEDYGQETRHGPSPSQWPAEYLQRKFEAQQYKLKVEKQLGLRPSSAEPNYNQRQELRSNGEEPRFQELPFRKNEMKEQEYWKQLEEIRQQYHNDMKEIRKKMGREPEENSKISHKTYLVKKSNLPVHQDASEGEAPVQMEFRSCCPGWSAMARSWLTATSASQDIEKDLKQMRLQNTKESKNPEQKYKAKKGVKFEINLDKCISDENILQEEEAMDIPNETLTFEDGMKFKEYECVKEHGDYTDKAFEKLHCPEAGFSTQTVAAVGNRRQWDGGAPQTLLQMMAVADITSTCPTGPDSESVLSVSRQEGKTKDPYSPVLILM
Chain of RAC-alpha serine/threonine-protein kinase (Homo sapiens) (P31749 whole entry): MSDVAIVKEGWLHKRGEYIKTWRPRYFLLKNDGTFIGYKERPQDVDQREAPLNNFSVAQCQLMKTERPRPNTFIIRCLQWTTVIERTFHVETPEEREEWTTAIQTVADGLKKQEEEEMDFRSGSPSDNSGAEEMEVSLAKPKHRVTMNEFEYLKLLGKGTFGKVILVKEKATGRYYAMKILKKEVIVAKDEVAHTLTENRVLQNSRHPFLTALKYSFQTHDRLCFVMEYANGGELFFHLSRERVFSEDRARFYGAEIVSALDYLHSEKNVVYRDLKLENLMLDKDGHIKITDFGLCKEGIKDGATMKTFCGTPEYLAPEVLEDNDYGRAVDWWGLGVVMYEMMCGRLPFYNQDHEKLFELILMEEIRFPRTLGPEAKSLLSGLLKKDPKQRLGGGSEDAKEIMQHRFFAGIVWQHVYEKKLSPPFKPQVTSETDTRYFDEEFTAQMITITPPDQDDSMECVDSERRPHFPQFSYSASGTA
Chain of Tyrosine-protein kinase Mer (Homo sapiens) (Q12866 whole entry, the tested form may be a part): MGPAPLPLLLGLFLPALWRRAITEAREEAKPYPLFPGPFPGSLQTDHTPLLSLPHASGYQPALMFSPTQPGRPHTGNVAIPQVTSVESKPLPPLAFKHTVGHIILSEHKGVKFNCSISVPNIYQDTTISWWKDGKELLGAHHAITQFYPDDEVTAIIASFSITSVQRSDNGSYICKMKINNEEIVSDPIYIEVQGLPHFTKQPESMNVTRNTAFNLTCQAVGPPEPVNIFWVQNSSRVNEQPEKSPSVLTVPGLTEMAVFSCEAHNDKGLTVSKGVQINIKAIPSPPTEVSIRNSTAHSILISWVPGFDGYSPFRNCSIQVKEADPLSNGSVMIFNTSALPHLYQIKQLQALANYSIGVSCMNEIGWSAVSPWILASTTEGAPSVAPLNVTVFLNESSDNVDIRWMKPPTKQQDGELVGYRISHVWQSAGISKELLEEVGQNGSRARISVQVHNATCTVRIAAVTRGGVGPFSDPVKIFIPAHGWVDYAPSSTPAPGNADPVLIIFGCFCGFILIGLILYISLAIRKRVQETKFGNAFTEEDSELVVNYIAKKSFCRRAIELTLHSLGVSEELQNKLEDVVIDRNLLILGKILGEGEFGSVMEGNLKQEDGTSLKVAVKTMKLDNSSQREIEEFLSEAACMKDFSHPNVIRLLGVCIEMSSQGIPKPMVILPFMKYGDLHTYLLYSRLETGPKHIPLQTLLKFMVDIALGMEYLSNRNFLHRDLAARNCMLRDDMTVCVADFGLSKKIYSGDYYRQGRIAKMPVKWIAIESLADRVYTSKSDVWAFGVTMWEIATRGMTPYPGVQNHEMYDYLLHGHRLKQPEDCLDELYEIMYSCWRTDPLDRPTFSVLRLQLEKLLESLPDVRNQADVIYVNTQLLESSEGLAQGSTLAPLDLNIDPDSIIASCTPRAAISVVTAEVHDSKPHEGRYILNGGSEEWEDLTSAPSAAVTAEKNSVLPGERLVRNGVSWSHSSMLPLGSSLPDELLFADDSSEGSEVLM
Chain of Serine/threonine-protein kinase Chk2 (Homo sapiens) (O96017 whole entry): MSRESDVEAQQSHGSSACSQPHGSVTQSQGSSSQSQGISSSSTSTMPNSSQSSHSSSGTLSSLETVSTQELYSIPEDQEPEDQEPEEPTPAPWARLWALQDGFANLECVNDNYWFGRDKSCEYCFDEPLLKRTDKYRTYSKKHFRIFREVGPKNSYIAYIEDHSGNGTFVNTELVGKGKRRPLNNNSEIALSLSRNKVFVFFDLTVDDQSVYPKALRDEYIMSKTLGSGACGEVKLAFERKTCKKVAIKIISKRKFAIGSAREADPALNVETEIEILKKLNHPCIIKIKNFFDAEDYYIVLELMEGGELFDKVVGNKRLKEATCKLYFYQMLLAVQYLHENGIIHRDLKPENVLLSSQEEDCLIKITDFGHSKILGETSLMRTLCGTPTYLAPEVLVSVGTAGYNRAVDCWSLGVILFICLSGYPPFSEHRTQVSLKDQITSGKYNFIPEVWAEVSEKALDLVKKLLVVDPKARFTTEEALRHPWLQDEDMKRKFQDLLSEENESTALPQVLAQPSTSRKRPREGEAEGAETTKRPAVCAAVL
Chain of Platelet-derived growth factor receptor beta (Homo sapiens) (P09619 whole entry): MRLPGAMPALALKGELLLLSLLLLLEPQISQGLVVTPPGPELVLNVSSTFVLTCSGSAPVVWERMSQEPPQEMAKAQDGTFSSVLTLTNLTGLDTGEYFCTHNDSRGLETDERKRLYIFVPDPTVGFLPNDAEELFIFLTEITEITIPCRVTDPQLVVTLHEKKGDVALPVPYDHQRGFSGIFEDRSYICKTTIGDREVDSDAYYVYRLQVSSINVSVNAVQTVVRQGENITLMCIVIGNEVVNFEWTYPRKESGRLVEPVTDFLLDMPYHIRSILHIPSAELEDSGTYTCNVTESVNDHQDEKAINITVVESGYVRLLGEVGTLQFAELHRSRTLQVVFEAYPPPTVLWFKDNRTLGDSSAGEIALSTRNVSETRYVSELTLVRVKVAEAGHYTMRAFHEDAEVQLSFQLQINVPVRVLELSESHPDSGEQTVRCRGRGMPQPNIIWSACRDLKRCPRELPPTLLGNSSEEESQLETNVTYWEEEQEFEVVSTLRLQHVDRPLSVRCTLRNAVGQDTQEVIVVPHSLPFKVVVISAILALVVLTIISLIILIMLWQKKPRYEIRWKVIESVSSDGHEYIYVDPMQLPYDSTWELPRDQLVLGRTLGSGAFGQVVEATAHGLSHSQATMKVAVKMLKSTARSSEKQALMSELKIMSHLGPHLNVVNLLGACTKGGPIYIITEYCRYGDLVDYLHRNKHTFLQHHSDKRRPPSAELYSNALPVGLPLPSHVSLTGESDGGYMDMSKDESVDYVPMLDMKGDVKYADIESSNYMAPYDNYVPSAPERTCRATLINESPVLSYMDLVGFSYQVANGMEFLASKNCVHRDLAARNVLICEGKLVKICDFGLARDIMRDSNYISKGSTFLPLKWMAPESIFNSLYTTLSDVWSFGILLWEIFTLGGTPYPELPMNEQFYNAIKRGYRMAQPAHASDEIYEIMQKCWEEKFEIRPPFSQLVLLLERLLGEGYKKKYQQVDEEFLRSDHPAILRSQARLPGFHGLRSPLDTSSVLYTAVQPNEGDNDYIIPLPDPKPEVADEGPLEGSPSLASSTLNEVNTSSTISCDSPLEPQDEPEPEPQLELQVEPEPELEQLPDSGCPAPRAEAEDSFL
Chain of Serine/threonine-protein kinase DCLK2 (Homo sapiens) (Q8N568 whole entry): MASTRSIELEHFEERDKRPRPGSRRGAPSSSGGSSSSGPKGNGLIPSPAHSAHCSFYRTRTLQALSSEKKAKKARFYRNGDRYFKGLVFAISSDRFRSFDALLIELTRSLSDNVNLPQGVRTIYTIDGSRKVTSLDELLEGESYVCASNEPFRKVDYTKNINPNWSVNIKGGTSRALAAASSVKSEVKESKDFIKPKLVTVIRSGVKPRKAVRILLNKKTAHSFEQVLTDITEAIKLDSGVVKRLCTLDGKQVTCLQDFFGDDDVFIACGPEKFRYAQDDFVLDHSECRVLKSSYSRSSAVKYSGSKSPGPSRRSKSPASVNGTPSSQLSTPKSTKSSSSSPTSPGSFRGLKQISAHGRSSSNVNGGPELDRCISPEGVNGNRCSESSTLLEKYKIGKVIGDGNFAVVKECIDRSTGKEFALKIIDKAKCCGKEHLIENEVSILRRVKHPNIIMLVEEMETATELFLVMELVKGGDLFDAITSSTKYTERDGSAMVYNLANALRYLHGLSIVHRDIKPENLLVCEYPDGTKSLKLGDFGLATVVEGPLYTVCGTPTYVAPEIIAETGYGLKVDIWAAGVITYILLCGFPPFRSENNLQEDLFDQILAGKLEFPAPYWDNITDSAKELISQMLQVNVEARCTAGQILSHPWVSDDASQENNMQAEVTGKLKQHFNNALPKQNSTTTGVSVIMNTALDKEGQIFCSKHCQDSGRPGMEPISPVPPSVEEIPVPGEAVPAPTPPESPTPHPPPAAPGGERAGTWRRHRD
Chain of Serine/threonine-protein kinase 32A (Homo sapiens) (Q8WU08 whole entry): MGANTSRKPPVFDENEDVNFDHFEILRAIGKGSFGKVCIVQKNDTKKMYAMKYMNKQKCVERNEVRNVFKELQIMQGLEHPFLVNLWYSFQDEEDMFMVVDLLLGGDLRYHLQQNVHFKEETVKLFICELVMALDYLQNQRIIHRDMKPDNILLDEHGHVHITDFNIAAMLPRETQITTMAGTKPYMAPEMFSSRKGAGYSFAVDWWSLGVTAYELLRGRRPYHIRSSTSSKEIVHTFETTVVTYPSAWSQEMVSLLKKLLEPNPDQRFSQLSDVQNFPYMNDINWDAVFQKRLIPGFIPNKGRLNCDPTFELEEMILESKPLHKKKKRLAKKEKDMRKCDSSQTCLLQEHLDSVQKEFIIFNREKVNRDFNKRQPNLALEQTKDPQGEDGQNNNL

CN(C)CC#Cc1ccc(OCCCc2sc(N3CCc4cccc(C(=O)Nc5nc6ccccc6s5)c4C3)nc2C(=O)O)c(F)c1 [A-1155463]
residual activity [1]: 100%
residual activity [2]: 90%
residual activity [3]: 100%
residual activity [4]: 100%
residual activity [5]: 84%
residual activity [6]: 100%
residual activity [7]: 100%
residual activity [8]: 100%
residual activity [9]: 96%
residual activity [10]: 100%
residual activity [11]: 100%
residual activity [12]: 100%
residual activity [13]: 87%
residual activity [14]: 100%
residual activity [15]: 92%
residual activity [16]: 100%
residual activity [17]: 75%
residual activity [18]: 100%
residual activity [19]: 95%
residual activity [20]: 99%
residual activity [21]: 100%
residual activity [22]: 100%
residual activity [23]: 100%
residual activity [24]: 100%
residual activity [25]: 83%
residual activity [26]: 100%
residual activity [27]: 89%
residual activity [28]: 100%
residual activity [29]: 100%
residual activity [30]: 100%
residual activity [31]: 92%
residual activity [32]: 100%
residual activity [33]: 90%
residual activity [34]: 94%
residual activity [35]: 100%
residual activity [36]: 100%
residual activity [37]: 98%
residual activity [38]: 87%
residual activity [39]: 98%
residual activity [40]: 72%
residual activity [41]: 100%
residual activity [42]: 100%
residual activity [43]: 38%
residual activity [44]: 100%
residual activity [45]: 95%
